Measured values taken from patent US20230278987A1, “Antimicrobial Compounds and Methods” (Curza Global, LLC, priority 2019, published 2023).
In brackets after ≈: the same amount, converted by molar mass. Counter-ions that a name gives are not always drawn. Like-named read-outs stand apart in the source and are kept apart here.

Assays:
E.coli (Ec) = experiment: Broth microdilution MIC against E.coli (Ec); format: cell-based; details: for MIC: Escherichia coli
In short: (§1)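 MIC per modified CLSI M07-A9; 8-point 2-fold dilutions, triplicate; CAMHB ± NaHCO3 6.25/25 mM final or ± heat-inactivated human serum 0-50%; 5 × 10^4 CFU/well; inoculum from 0.5 McFarland culture at 35 ± 2° C.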

S.aureus (Sa) = experiment: Broth microdilution MIC against S.aureus (Sa); format: cell-based; details: for MIC: Staphylococcus aureus
In short: as §1

[1] = molecular target: Rabbit Reticulocyte Lysate (eukaryotic protein synthesis); experiment: Rabbit Reticulocyte Lysate: inhibition of eukaryotic protein synthesis (luciferase); format: biochemical; details: 30° C. for 90 minutes, read-out: retic. IC50
In short: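 Nuclease-treated rabbit reticulocyte lysate translating luciferase control RNA, incubated 90 min at 30° C with eight 2-fold compound dilutions. Luminescence measured after adding luciferase reagent; % inhibition relative to no-inhibitor wells, with no-RNA wells as background.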

E.faecalis (Ef) = experiment: Broth microdilution MIC against E.faecalis (Ef); format: cell-based; details: for MIC: Enterococcus faecalis
In short: as §1

A.baumannii (Ab) = experiment: Broth microdilution MIC against A.baumannii (Ab); format: cell-based; details: for MIC: Acinetobacter baumannii
In short: as §1

[2] = system: E.coli S30 extract (bacterial protein synthesis); experiment: E.coli S30 extract: inhibition of bacterial protein synthesis (luciferase); format: biochemical; details: 37° C. for 1 hour
In short: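 E. coli S30 circular-DNA coupled transcription-translation of pBESTluc luciferase in presence of 2-fold serial compound dilutions (8 points). Incubated 1 h at 37 °C, stopped at 4 °C, then luminescence read. Percent inhibition versus no-inhibitor controls, with no-DNA background.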

P.aeruginosa (Pa) = experiment: Broth microdilution MIC against P.aeruginosa (Pa); format: cell-based; details: for MIC: Pseudomonas aeruginosa
In short: as §1

[3] = CAMHB supplemented with sodium bicarbonate 6.25 mM
[4] = CAMHB supplemented with sodium bicarbonate 6.25 mM, Hydrochloride Salt

SMILES: CC(C)(N)C(=O)N1CCN(C(=O)Nc2ccn(-c3ccc4c(c3)CCC(N[C@H]3CC[C@@H](N)C3)C4)c(=O)n2)CC1 (single isomer, unassigned) [Compound 34, Hydrochloride Salt]
- E. coli + bicarb 6.25 (MIC) (E.coli (Ec); [3]): +++ (An MIC value (µg/mL) that is less than 8 µg/mL)
- Sa + bicarb 6.25 (MIC) (S.aureus (Sa); [4]): +++ (An MIC value (µg/mL) that is less than 8 µg/mL)
- IC50 [1]: ≥ 1000 nM
- Ef +bicarb 6.25 (MIC) (E.faecalis (Ef); [3]): + (An MIC value (µg/mL) that is 32 µg/mL or greater)
- Ab +bicarb 6.25 (MIC) (A.baumannii (Ab); [3]): + (An MIC value (µg/mL) that is 32 µg/mL or greater)
- IC50 [2]: < 500 nM
- Pa +bicarb 6.25 (MIC) (P.aeruginosa (Pa); [3]): + (An MIC value (µg/mL) that is 32 µg/mL or greater)

SMILES: CC(C)(N)C(=O)N1CCN(C(=O)Nc2ccn(-c3ccc4c(c3)CCC(NC[C@H]3C[C@H](N)C3)C4)c(=O)n2)CC1 (stereo partly drawn) [Compound 31]
- MIC (E.coli (Ec); CAMHB supplemented with sodium bicarbonate 6.25 mM, read-out: E. coli + bicarb 6.25 (MIC)): < 8 µg/mL
- MIC (S.aureus (Sa); CAMHB supplemented with sodium bicarbonate 6.25 mM, read-out: Sa + bicarb 6.25 (MIC)): < 8 µg/mL
- IC50 [1]: ≥ 1000 nM
- MIC (E.faecalis (Ef); CAMHB supplemented with sodium bicarbonate 6.25 mM, read-out: Ef +bicarb 6.25 (MIC)): 8 to 32 µg/mL (≈ 14.9 to 59.6 µM)
- MIC (A.baumannii (Ab); CAMHB supplemented with sodium bicarbonate 6.25 mM, read-out: Ab +bicarb 6.25 (MIC)): > 32 µg/mL
- IC50 [2]: < 500 nM
- MIC (P.aeruginosa (Pa); CAMHB supplemented with sodium bicarbonate 6.25 mM, read-out: Pa +bicarb 6.25 (MIC)): > 32 µg/mL

SMILES: CC(C)(N)C(=O)N1CCN(C(=O)Nc2ccn(-c3ccc4c(c3)OCC(N3C[C@@H]5[C@@H](CN)[C@@H]5C3)C4)c(=O)n2)CC1 (stereo partly drawn) [Compound 12, exo-4-(2-amino-2-methylpropanoyl)-N-(1-(3-(-6-(aminomethyl)-3-azabicyclo[3.1.0]hexan-3-yl)chroman-7-yl)-2-oxo-1,2-dihydropyrimidin-4-yl)piperazine-1-carboxamide hydrochloride salt]
- MIC (E.coli (Ec); CAMHB supplemented with sodium bicarbonate 25 mM, read-out: E.coli + bicarb 25 (MIC)): < 8 µg/mL
- MIC (S.aureus (Sa); CAMHB supplemented with sodium bicarbonate 25 mM, read-out: Sa + bicarb 25 (MIC)): 8 to 32 µg/mL
- IC50 [1]: ≥ 1000 nM
- MIC (E.faecalis (Ef); CAMHB supplemented with sodium bicarbonate 25 mM, read-out: Ef +bicarb 25 (MIC)): > 32 µg/mL
- MIC (A.baumannii (Ab); CAMHB supplemented with sodium bicarbonate 25 mM, read-out: Ab +bicarb 25 (MIC)): > 32 µg/mL
- IC50 [2]: ≥ 1000 nM
- MIC (P.aeruginosa (Pa); CAMHB supplemented with sodium bicarbonate 25 mM, read-out: Pa +bicarb 25 (MIC)): > 32 µg/mL

SMILES: CCN(C1CCc2cc(-n3ccc(NC(=O)N4CCN(C(=O)C(C)(C)N)CC4)nc3=O)ccc2C1)[C@H]1CC[C@H](N)CC1 (stereo partly drawn) [Compound 16, 4-(2-Amino-2-methylpropanoyl)-N-(1-(6-(((trans)-4-aminocyclohexyl)(ethyl)amino)-5,6,7,8-tetrahydronaphthalen-2-yl)-2-oxo-1,2-dihydropyrimidin-4-yl)piperazine-1-carboxamide hydrochloride salt]
- MIC (E.coli (Ec); read-out: E.coli + bicarb 25 (MIC)): < 8 µg/mL
- MIC (S.aureus (Sa); read-out: Sa + bicarb 25 (MIC)): < 8 µg/mL
- IC50 [1]: ≥ 1000 nM
- MIC (E.faecalis (Ef); read-out: Ef +bicarb 25 (MIC)): < 8 µg/mL
- MIC (A.baumannii (Ab); read-out: Ab +bicarb 25 (MIC)): 8 to 32 µg/mL
- IC50 [2]: < 500 nM
- MIC (P.aeruginosa (Pa); read-out: Pa +bicarb 25 (MIC)): 8 to 32 µg/mL

SMILES: CC(C)(N)C(=O)N1CCN(C(=O)Nc2ccn(-c3ccc4c(c3)CCC(N[C@H]3CC[C@H](N)C3)C4)c(=O)n2)CC1 (single isomer, unassigned) [Compound 28, Hydrochloride Salt]
- E. coli + bicarb 6.25 (MIC) (E.coli (Ec); [3]): +++ (An MIC value (µg/mL) that is less than 8 µg/mL)
- Sa + bicarb 6.25 (MIC) (S.aureus (Sa); [3]): +++ (An MIC value (µg/mL) that is less than 8 µg/mL)
- IC50 [1]: ≥ 1000 nM
- Ef +bicarb 6.25 (MIC) (E.faecalis (Ef); [4]): ++ (An MIC value (µg/mL) that is 8 µg/mL or greater and less than 32 µg/mL)
- Ab +bicarb 6.25 (MIC) (A.baumannii (Ab); [3]): + (An MIC value (µg/mL) that is 32 µg/mL or greater)
- IC50 [2]: < 500 nM
- Pa +bicarb 6.25 (MIC) (P.aeruginosa (Pa); [3]): + (An MIC value (µg/mL) that is 32 µg/mL or greater)

SMILES: CC(C)(N)C(=O)N1CCN(C(=O)Nc2ccn(-c3ccc4c(c3)CCC(N[C@@H]3CC[C@@H](N)C3)C4)c(=O)n2)CC1 (stereo partly drawn) [Compound 25]
- MIC (E.coli (Ec); read-out: E. coli + bicarb 6.25 (MIC)): < 8 µg/mL
- MIC (S.aureus (Sa); read-out: Sa + bicarb 6.25 (MIC)): < 8 µg/mL
- IC50 [1]: ≥ 1000 nM
- MIC (E.faecalis (Ef); read-out: Ef +bicarb 6.25 (MIC)): > 32 µg/mL
- MIC (A.baumannii (Ab); read-out: Ab +bicarb 6.25 (MIC)): > 32 µg/mL
- IC50 [2]: < 500 nM
- MIC (P.aeruginosa (Pa); read-out: Pa +bicarb 6.25 (MIC)): > 32 µg/mL
